Experimental data published in EP0705841A1, “Peptides havng antigenic activity against hepatitis A virus (HAV)” (SORIN BIOMEDICA S.p.A., priority 1994, dated 1996).

System: 8F4H9B monoclonal antibody
Test: ELISA assay: reactivity of peptides adhering to the solid phase with the 8F4H9B monoclonal antibody
Assay type: binding, mice
Details: peptides in monomer form adhering to solid phase (fig.1, fig.2)
Description: The solid phase was obtained on PVC trays (Nunc), that were added with 200 µl of a peptide solution at various concentrations in a carbonate buffer 50 mM, pH 9.6. Trays were incubated overnight at 4°C when added with the monomer peptide solution, and for 2 hours at 37°C when added with the tetramer peptide solution.
Trays were saturated with 300 µl of a solution of gelatin 2%, in Tris-HCl, 0.1M, pH 7.5, for 1 hour at room temperature. Antibodies were diluted in a solution, comprising PBS, EDTA 0.03%, Triton-X100 0.2%, Tween 20 0.2% and BSA fraction V 3.2%; and incubated for 3 hours at 37°C. Trays were washed four times with an ET-System Sorin automatic washer, using PBS/Tween 20 0.1%, and the reaction detected by adding 100 µl of a chromogen and a substrate (Sorin DEIA KIT). The reaction was blocked after 30 min. by adding 200 µl of H₂SO₄ 1N, and the absorbance read at 450 nm.

Row | Substance | reactivity with the 8F4H9B-HRP monoclonal antibody
1 | DVMYLH [peptide 36 (Table 1)] | reacted with the antibody, even if having shown a lesser reactivity than the PM peptide
2 | DFMWMH [peptide 17 (Table 1)] | reacted with the antibody, even if having shown a lesser reactivity than the PM peptide
